Data reported in US20240025883A1, “PYRIMIDIN-2-YL SULFONAMIDE DERIVATIVES” (Hoffmann-La Roche Inc., priority 2021, published 2024).

Biological target: human GPR17 short isoform (Homo sapiens (Human), UniProt Q13304)
Experiment: GPR17 cAMP assay (hGPR17 cAMP, antagonist mode against EC80 of MDL29,951)
Assay type: cell-based
Conditions: CHO-K1 cells stably expressing human GPR17 short isoform; EC80 of agonist MDL29,951; forskolin 15 μM
Experimental: GPR17 cAMP Assay Protocol:
CHO-K1 cells stably expressing vector containing untagged human GPR17 short isoform (Roche) were cultured at 37° C./5% CO2 in DMEM (Dulbecco's Modified Eagle Medium):F-12 (1:1) supplemented with 10% foetal bovine serum and 400 μg/ml Geneticin.
Changes in intracellular cyclic adenosine monophosphate (cAMP) levels were quantified using the Nano-TRF Detection Assay kit (Roche Diagnostics, Cat. No. 05214386001). This assay allows for direct cAMP quantification in a homogeneous solution, cAMP is detected based on time-resolved fluorescence energy transfer (TR-FRET) and competitive binding of ruthenylated cAMP and endogenous cAMP to an anti-cAMP monoclonal antibody labeled with AlexaFluor-700. The Ruthenium complex serves as the FRET donor and transfers energy to AlexaFluor-700. The FRET signal is inversely proportional to the cAMP concentration.
CHO-GPR17S cells were detached with Accutase and resuspended in assay buffer consisting of Hank's Balanced Salt Solution (HBSS), 10 mM HEPES (4-(2-hydroxyethyl) piperazine-1-ethanesulfonic acid solution) and 0.1% bovine serum albumin (pH 7.4). The cells were seeded in black 384-well plates (Corning) at a density of 10,000 cells/20 μl assay buffer until the addition of compounds.
Test antagonist compounds were serially diluted in dimethyl sulfoxide (DMSO) and spotted in 384-well plates. The compounds were then diluted in HBSS buffer supplemented with an EC80 concentration of MDL29,951 (3-(2-Carboxy-4,6-dichloroindol-3-yl)propionic acid) (GPR17 agonist) plus 3-Isobutyl-1-methylxanthine (IBMX) (0.5 mM final concentration) and added to the cells at room temperature. Forskolin (15 μM final concentration) was added 5 minutes after the test compounds and the cells were incubated at room temperature for 30 minutes. The assay was stopped by adding cAMP detection mix (containing detergents for cell lysis) for 90 minutes at room temperature.
Cellular cAMP was measured using a Paradigm reader (Molecular Devices). The raw data was used to calculate the FRET signal based on the assay's P-factor as per cAMP kit instructions. The data was normalized to the maximal activity of a reference antagonist and dose response curves were fitted to the percent activity of the test compounds using a sigmoidal dose response model (Genedata Screener).

Sequence of human GPR17 short isoform (Q13304 29-367): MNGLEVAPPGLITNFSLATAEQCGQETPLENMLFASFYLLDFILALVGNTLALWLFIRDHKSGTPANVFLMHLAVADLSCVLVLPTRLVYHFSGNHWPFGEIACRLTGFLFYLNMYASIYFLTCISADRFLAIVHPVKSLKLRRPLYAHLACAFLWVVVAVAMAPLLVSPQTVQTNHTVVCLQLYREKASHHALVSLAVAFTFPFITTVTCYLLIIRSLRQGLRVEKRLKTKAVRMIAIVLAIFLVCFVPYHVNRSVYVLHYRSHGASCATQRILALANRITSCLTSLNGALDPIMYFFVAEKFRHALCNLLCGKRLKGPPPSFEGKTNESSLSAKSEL

| Structure (SMILES) | IC50 [nM] |
| --- | --- |
| COc1nc(NS(=O)(=O)c2c[nH]c3cc(Cl)ccc23)nc(OC2CC2)c1Br [Example 71, N-[5-bromo-4-(cyclopropoxy)-6-methoxy-pyrimidin-2-yl]-6-chloro-1H-indole-3-sulfonamide] | 11500 |
| COc1nc(NS(=O)(=O)c2c[nH]c3c(Br)c(F)ccc23)ncc1CC(F)F [Example 128, 7-bromo-N-[5-(2,2-difluoroethyl)-4-methoxy-pyrimidin-2-yl]-6-fluoro-1H-indole-3-sulfonamide] | 446 |
| COc1nc(NS(=O)(=O)c2c[nH]c3cc(Cl)ccc23)ncc1CCC(F)F [Example 48, 6-chloro-N-[5-(3,3-difluoropropyl)-4-methoxy-pyrimidin-2-yl]-1H-indole-3-sulfonamide] | 26 |
| COc1nc(NS(=O)(=O)c2c[nH]c3cc(Cl)ccc23)ncc1OCCC(F)F [Example 39, 6-chloro-N-[5-(3,3-difluoropropoxy)-4-methoxy-pyrimidin-2-yl]-1H-indole-3-sulfonamide] | 287 |
| CC#Cc1c(OC)nc(NS(=O)(=O)c2c[nH]c3cc(Cl)ccc23)nc1OC [Example 57, 6-chloro-N-(4,6-dimethoxy-5-prop-1-ynyl-pyrimidin-2-yl)-1H-indole-3-sulfonamide] | 34 |
| COc1nc(NS(=O)(=O)c2c[nH]c3cc(Cl)ccc23)nc(OC)c1CCC#N [Example 68, 6-chloro-N-[5-(2-cyanoethyl)-4,6-dimethoxy-pyrimidin-2-yl]-1H-indole-3-sulfonamide] | 9 |
| COc1nc(NS(=O)(=O)c2c[nH]c3cc(Cl)ccc23)nc(SC)c1OC(F)F [Example 86, 6-chloro-N-[5-(difluoromethoxy)-4-methoxy-6-methylsulfanyl-pyrimidin-2-yl]-1H-indole-3-sulfonamide] | 117 |
| COc1nc(NS(=O)(=O)c2c[nH]c3cc(Cl)ccc23)ncc1OCCOC(F)F [Example 9, 6-chloro-N-[5-[2-(difluoromethoxy)ethoxy]-4-methoxy-pyrimidin-2-yl]-1H-indole-3-sulfonamide] | 218 |
| COc1nc(NS(=O)(=O)c2c[nH]c3cc(Cl)ccc23)nc(C)c1OCC(F)F [Example 20, 6-chloro-N-[5-(2,2-difluoroethoxy)-4-methoxy-6-methyl-pyrimidin-2-yl]-1H-indole-3-sulfonamide] | 399 |
| COc1nc(NS(=O)(=O)c2c[nH]c3c(N(C)C)c(Cl)ccc23)nc(OC)c1CC(F)F [Example 115, 6-chloro-N-[5-(2,2-difluoroethyl)-4,6-dimethoxy-pyrimidin-2-yl]-7-(dimethylamino)-1H-indole-3-sulfonamide] | 26 |
| COc1nc(NS(=O)(=O)c2c[nH]c3c(F)c(Cl)ccc23)nc(OC)c1OC(F)F [Example 125, 6-chloro-N-[5-(difluoromethoxy)-4,6-dimethoxy-pyrimidin-2-yl]-7-fluoro-1H-indole-3-sulfonamide] | 23 |
| COc1nc(NS(=O)(=O)c2c[nH]c3cc(Cl)ccc23)ncc1CC(F)CF (stereo not drawn) [Example 176, 6-chloro-N-[5-(2,3-difluoropropyl)-4-methoxy-pyrimidin-2-yl]-1H-indole-3-sulfonamide] | 47 |
| COc1nc(NS(=O)(=O)c2csc3nc(C(F)F)ccc23)ncc1OCCF [Example 165, 6-(difluoromethyl)-N-[5-(2-fluoroethoxy)-4-methoxy-pyrimidin-2-yl]thieno[2,3-b]pyridine-3-sulfonamide] | 1110 |
| COc1nc(NS(=O)(=O)c2c[nH]c3cc(Cl)ccc23)nc(OC)c1CCCF [Example 61, 6-chloro-N-[5-(3-fluoropropyl)-4,6-dimethoxy-pyrimidin-2-yl]-1H-indole-3-sulfonamide] | 7 |
| COc1nc(NS(=O)(=O)c2c[nH]c3cc(Cl)ccc23)nc(Cl)c1OC [Example 75, 6-chloro-N-(4-chloro-5,6-dimethoxy-pyrimidin-2-yl)-1H-indole-3-sulfonamide] | 946 |
| COc1nc(NS(=O)(=O)c2c[nH]c3cc(Cl)ccc23)nc(OC)c1Br [Example 12, N-(5-bromo-4,6-dimethoxy-pyrimidin-2-yl)-6-chloro-1H-indole-3-sulfonamide] | 20 |
| COc1nc(NS(=O)(=O)c2c[nH]c3cc(Br)ccc23)ncc1CCC#N [Example 89, 6-bromo-N-[5-(2-cyanoethyl)-4-methoxy-pyrimidin-2-yl]-1H-indole-3-sulfonamide] | 212 |

More lines, now with the values ahead:

| IC50 [nM] | Structure (SMILES) |
| --- | --- |
| 30 | COc1nc(NS(=O)(=O)c2c[nH]c3c(Cl)c(Cl)ccc23)ncc1CCC(F)F [Example 211, 6,7-dichloro-N-[5-(3,3-difluoropropyl)-4-methoxy-pyrimidin-2-yl]-1H-indole-3-sulfonamide] |
| 35 | COc1nc(NS(=O)(=O)c2c[nH]c3c(F)c(C(F)F)ccc23)nc(OC)c1OCC(F)F [Example 250, N-[5-(2,2-difluoroethoxy)-4,6-dimethoxy-pyrimidin-2-yl]-6-(difluoromethyl)-7-fluoro-1H-indole-3-sulfonamide] |
| 28 | COc1nc(NS(=O)(=O)c2c[nH]c3c(F)c(Cl)ccc23)ncc1OC(F)(F)CF [Example 215, 6-chloro-7-fluoro-N-[4-methoxy-5-(1,1,2-trifluoroethoxy)pyrimidin-2-yl]-1H-indole-3-sulfonamide] |
| 229 | COc1nc(NS(=O)(=O)c2c[nH]c3c([S+](C)[O-])c(Cl)ccc23)nc(OC)c1OCCF (stereo not drawn) [Example 278, 6-chloro-N-[5-(2-fluoroethoxy)-4,6-dimethoxy-pyrimidin-2-yl]-7-methylsulfinyl-1h-indole-3-sulfonamide] |
| 20 | COc1nc(NS(=O)(=O)c2c[nH]c3c(F)c(C(F)F)ccc23)nc(OC)c1OCC#N [Example 253, N-[5-(cyanomethoxy)-4,6-dimethoxy-pyrimidin-2-yl]-6-(difluoromethyl)-7-fluoro-1H-indole-3-sulfonamide] |
| 383 | COc1nc(NS(=O)(=O)c2c[nH]c3nc(C(F)F)ccc23)ncc1OC(F)(F)CF [Example 238, 6-(difluoromethyl)-N-[4-methoxy-5-(1,1,2-trifluoroethoxy)pyrimidin-2-yl]-1H-pyrrolo[2,3-b]pyridine-3-sulfonamide] |
| 40 | COc1nc(NS(=O)(=O)c2c[nH]c3c(C#N)c(Cl)ccc23)ncc1CC(F)F [Example 223, 6-chloro-7-cyano-N-[5-(2,2-difluoroethyl)-4-methoxy-pyrimidin-2-yl]-1H-indole-3-sulfonamide] |
| 14 | COc1nc(NS(=O)(=O)c2c[nH]c3cc(Cl)ccc23)nc(OC)c1OCC#N [Example 265, 6-chloro-N-[5-(cyanomethoxy)-4,6-dimethoxy-pyrimidin-2-yl]-1H-indole-3-sulfonamide] |
| 65 | COc1nc(NS(=O)(=O)c2c[nH]c3nc(Cl)ccc23)nc(OC)c1OCCF [Example 221, 6-chloro-N-[5-(2-fluoroethoxy)-4,6-dimethoxy-pyrimidin-2-yl]-1H-pyrrolo[2,3-b]pyridine-3-sulfonamide] |
| 108 | COc1nc(NS(=O)(=O)c2c[nH]c3cc(Cl)ccc23)ncc1CCC(F)(F)F [Example 178, 6-chloro-N-[4-methoxy-5-(3,3,3-trifluoropropyl)pyrimidin-2-yl]-1H-indole-3-sulfonamide] |
| 291 | COc1nc(NS(=O)(=O)c2c[nH]c3c2ccc2cccnc23)ncc1CC(F)F [Example 222, N-[5-(2,2-difluoroethyl)-4-methoxy-pyrimidin-2-yl]-1H-pyrrolo[3,2-h]quinoline-3-sulfonamide] |
| 273 | COc1nc(NS(=O)(=O)c2c[nH]c3nc(C)ccc23)nc(OC)c1OCC#N [Example 284, N-[5-(Cyanomethoxy)-4,6-Dimethoxy-Pyrimidin-2-Yl]-6-Methyl-1H-Pyrrolo[2,3-b]Pyridine-3-Sulfonamide] |
| 27 | COc1nc(NS(=O)(=O)c2c[nH]c3nc(Cl)ccc23)ncc1OC(F)(F)CF [Example 220, 6-chloro-N-[4-methoxy-5-(1,1,2-trifluoroethoxy)pyrimidin-2-yl]-1H-pyrrolo[2,3-b]pyridine-3-sulfonamide] |
| 68 | COc1nc(NS(=O)(=O)c2c[nH]c3c(C(F)F)c(Cl)ccc23)ncc1CCC(F)F [Example 209, 6-chloro-7-(difluoromethyl)-N-[5-(3,3-difluoropropyl)-4-methoxy-pyrimidin-2-yl]-1H-indole-3-sulfonamide] |
| 90 | COc1nc(NS(=O)(=O)c2c[nH]c3cc(Cl)ccc23)ncc1CC(F)C(F)F (stereo not drawn) [Example 266, 6-chloro-N-[4-methoxy-5-(2,3,3-trifluoropropyl)pyrimidin-2-yl]-1H-indole-3-sulfonamide] |
| 84 | COc1nc(NS(=O)(=O)c2c[nH]c3cc(F)ccc23)nc(OC)c1OCC(F)F [Example 257, N-[5-(2,2-difluoroethoxy)-4,6-dimethoxy-pyrimidin-2-yl]-6-fluoro-1H-indole-3-sulfonamide] |
